Measured values: US7138361B2, “Herbicidal heterocycles” (E. I. du Pont de Nemours and Company, priority 2000, dated 2006)

Tests used:
Assay type in all cases: in vivo
[1] = system: velvetleaf (Abutilon theophrasti); assay: Test B preemergence
Method in brief: (§1)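 Post-treatment, species sat 13–15 days under greenhouse conditions before visual scoring against controls, 0 (no effect) through 100 (complete control). Application preemergence to sown seeds or postemergence at 1- to 4-leaf stage, using a non-phytotoxic solvent/surfactant formulation.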

[2] = system: giant foxtail (Setaria faberii); assay: Test B preemergence
Method in brief: as §1

[3] = system: crabgrass (Digitaria sanguinalis); assay: Test B preemergence
Method in brief: as §1

[4] = system: morning glory (Ipomoea hederacea); assay: Test B preemergence
Method in brief: as §1

[5] = system: Surinam grass (Brachiaria decumbens); assay: Test B preemergence
Method in brief: as §1

corn (Zea mays) [6] = assay: Test B preemergence
Method in brief: as §1

[7] = system: barnyardgrass (Echinochloa crus-galli); assay: Test B preemergence
Method in brief: as §1

[8] = system: lambsquarters (Chenopodium album); assay: Test B preemergence
Method in brief: as §1

[9] = system: pigweed (Amaranthus retroflexus); assay: Test B preemergence
Method in brief: as §1

rice (Oryza saliva) [10] = assay: Test B preemergence
Method in brief: as §1

[11] = system: cocklebur (Xanthium strumarium); assay: Test B preemergence
Method in brief: as §1

[12] = system: velvetleaf (Abutilon theophrasti); assay: Test B postemergence
Method in brief: as §1

[13] = system: giant foxtail (Setaria faberii); assay: Test B postemergence
Method in brief: as §1

[14] = system: crabgrass (Digitaria sanguinalis); assay: Test B postemergence
Method in brief: as §1

[15] = system: blackgrass (Alopecurus myosuroides); assay: Test B postemergence
Method in brief: as §1

[16] = system: morning glory (Ipomoea hederacea); assay: Test B postemergence
Method in brief: as §1

[17] = system: Surinam grass (Brachiaria decumbens); assay: Test B postemergence
Method in brief: as §1

corn (Zea mays) [18] = assay: Test B postemergence
Method in brief: as §1

[19] = system: barnyardgrass (Echinochloa crus-galli); assay: Test B postemergence
Method in brief: as §1

[20] = system: lambsquarters (Chenopodium album); assay: Test B postemergence
Method in brief: as §1

[21] = system: pigweed (Amaranthus retroflexus); assay: Test B postemergence
Method in brief: as §1

[22] = system: wheat (Triticum aestivum); assay: Test B postemergence
Method in brief: as §1

[23] = system: cocklebur (Xanthium strumarium); assay: Test B postemergence
Method in brief: as §1

wild oat (Avena fatua) = assay: Test B postemergence
Method in brief: as §1

[24] = system: duck salad (Heteranthera limosa); assay: Test C flooded paddy test; details: for Ducksalad plant response rating: Flooded Paddy, scale 0 to 100, 0 no effect, 100 complete control; for Plant response rating, Ducksalad: flooded paddy test, scale 0 to 100 (0 no effect, 100 complete control)
Method in brief: (§2)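 2-leaf-stage plants, flooded paddy; treated; greenhouse 12–14 days; compared with controls by eye; rated 0–100 (0 none, 100 complete control).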

[25] = system: barnyardgrass (Echinochloa crus-galli); assay: Test C flooded paddy test; details: for Barnyardgrass plant response rating: Flooded Paddy, scale 0 to 100, 0 no effect, 100 complete control; for Plant response rating, Barnyardgrass: flooded paddy test, scale 0 to 100 (0 no effect, 100 complete control)
Method in brief: as §2

rice (Oryza saliva) [26] = assay: Test C flooded paddy test; details: for Rice plant response rating: Flooded Paddy, scale 0 to 100, 0 no effect, 100 complete control; for Plant response rating, Rice: flooded paddy test, scale 0 to 100 (0 no effect, 100 complete control)
Method in brief: as §2

[27] = system: smallflower flatsedge (Cyperus difformis); assay: Test C flooded paddy test; details: for Flatsedge plant response rating: Flooded Paddy, scale 0 to 100, 0 no effect, 100 complete control; for Plant response rating, Flatsedge: flooded paddy test, scale 0 to 100 (0 no effect, 100 complete control)
Method in brief: as §2

[28] = Preemergence, Rate 500 g/ha, scale 0 to 100, 0 no effect, 100 complete control
[29] = preemergence, Rate 125 g/ha, scale of 0 to 100 where 0 is no effect and 100 is complete control, 13 to 15 days
[30] = Rate 125 g/ha, scale 0 to 100, 0 no effect, 100 complete control
[31] = Rate 500 g/ha, scale 0 to 100, 0 is no effect, 100 is complete control, 13 to 15 days
[32] = preemergence, Rate 62 g/ha, scale of 0 to 100 where 0 is no effect and 100 is complete control, 13 to 15 days
[33] = preemergence, Rate 250 g/ha, scale 0 to 100, 0 no effect, 100 complete control
[34] = Rate 62 g/ha, scale 0 to 100, 0 no effect, 100 complete control
[35] = Rate 250 g/ha, scale 0 (no effect) to 100 (complete control), 13 to 15 days

CCCOC(=O)c1cccc(N2CCC(n3ccc(C(C)(C)C)n3)C2=O)c1 (centres unmarked) [Compound 123]
Plant response rating, Velvetleaf [1, 28]: 0 | Plant response rating, Velvetleaf [1, 29]: 0 | Plant response rating, Foxtail, Giant [2, 28]: 0 | Plant response rating, Foxtail, Giant [2, 29]: 0 | Plant response rating, Crabgrass [3, 28]: 60 | Plant response rating, Crabgrass [3, 29]: 0 | Plant response rating, Morningglory [4, 28]: 0 | Plant response rating, Morningglory [4, 29]: 0 | Plant response rating, Surinam grass [5, 28]: 0 | Plant response rating, Surinam grass [5, 29]: 0 | Plant response rating, Corn (corn (Zea mays) [6]; [28]): 0 | Plant response rating, Corn (corn (Zea mays) [6]; [29]): 0 | Plant response rating, Barnyardgrass [7, 28]: 0 | Plant response rating, Barnyardgrass [7, 29]: 0 | Plant response rating, Lambsquarters [8, 28]: 60 | Plant response rating, Lambsquarters [8, 29]: 0 | Plant response rating, Pigweed [9, 28]: 70 | Plant response rating, Pigweed [9, 29]: 0 | Plant response rating, Rice (rice (Oryza saliva) [10]; [28]): 0 | Plant response rating, Rice (rice (Oryza saliva) [10]; [29]): 0 | Plant response rating, Cocklebur [11, 28]: 0 | Plant response rating, Cocklebur [11, 29]: 0 | Plant response rating, Velvetleaf [12, 30]: 0 | Plant response rating, Foxtail, Giant [13, 30]: 0 | Plant response rating, Crabgrass [14, 30]: 0 | Plant response rating, Blackgrass [15, 31]: 0 | Plant response rating, Morningglory [16, 30]: 0 | Plant response rating, Surinam grass [17, 30]: 0 | Plant response rating, Surinam grass [17, 31]: 0 | Plant response rating, Corn (corn (Zea mays) [18]; [30]): 0 | Plant response rating, Corn (corn (Zea mays) [18]; [31]): 0 | Plant response rating, Barnyardgrass [19, 30]: 0 | Plant response rating, Barnyardgrass [19, 31]: 0 | Plant response rating, Lambsquarters [20, 30]: 0 | Plant response rating, Pigweed [21, 30]: 0 | Plant response rating, Wheat [22, 30]: 0 | Plant response rating, Cocklebur [23, 30]: 30 | Plant response rating, Cocklebur [23, 31]: 80 | Plant response rating, Wild Oat (wild oat (Avena fatua); [30]): 0 | Ducksalad plant response rating ([24]; Rate 250 g/ha): 60 | Ducksalad plant response rating ([24]; Rate 500 g/ha): 70 | Plant response rating, Ducksalad ([24]; Rate 62 g/ha): 20 | Plant response rating, Ducksalad ([24]; Rate 125 g/ha): 20 | Barnyardgrass plant response rating ([25]; Rate 250 g/ha): 0 | Barnyardgrass plant response rating ([25]; Rate 500 g/ha): 0 | Plant response rating, Barnyardgrass ([25]; Rate 62 g/ha): 0 | Plant response rating, Barnyardgrass ([25]; Rate 125 g/ha): 0 | Rice plant response rating (rice (Oryza saliva) [26]; Rate 250 g/ha): 0 | Rice plant response rating (rice (Oryza saliva) [26]; Rate 500 g/ha): 0 | Plant response rating, Rice (rice (Oryza saliva) [26]; Rate 62 g/ha): 0 | Plant response rating, Rice (rice (Oryza saliva) [26]; Rate 125 g/ha): 0 | Flatsedge plant response rating ([27]; Rate 250 g/ha): 50 | Flatsedge plant response rating ([27]; Rate 500 g/ha): 90 | Plant response rating, Flatsedge ([27]; Rate 62 g/ha): 30 | Plant response rating, Flatsedge ([27]; Rate 125 g/ha): 30

CCOc1cccc(N2CCC(n3ccc(C(CC)CC)n3)C2=O)c1 (centres unmarked) [Compound 125]
Plant response rating, Velvetleaf [1, 32]: 0 | Plant response rating, Velvetleaf [1, 33]: 40 | Plant response rating, Foxtail, Giant [2, 32]: 100 | Plant response rating, Foxtail, Giant [2, 33]: 100 | Plant response rating, Crabgrass [3, 32]: 100 | Plant response rating, Crabgrass [3, 33]: 100 | Plant response rating, Morningglory [4, 32]: 50 | Plant response rating, Morningglory [4, 33]: 80 | Plant response rating, Surinam grass [5, 32]: 70 | Plant response rating, Surinam grass [5, 33]: 100 | Plant response rating, Corn (corn (Zea mays) [6]; [32]): 20 | Plant response rating, Corn (corn (Zea mays) [6]; [33]): 40 | Plant response rating, Barnyardgrass [7, 32]: 100 | Plant response rating, Barnyardgrass [7, 33]: 100 | Plant response rating, Lambsquarters [8, 32]: 100 | Plant response rating, Lambsquarters [8, 33]: 100 | Plant response rating, Pigweed [9, 32]: 100 | Plant response rating, Pigweed [9, 33]: 100 | Plant response rating, Rice (rice (Oryza saliva) [10]; [32]): 50 | Plant response rating, Rice (rice (Oryza saliva) [10]; [33]): 100 | Plant response rating, Cocklebur [11, 32]: 0 | Plant response rating, Cocklebur [11, 33]: 50 | Plant response rating, Velvetleaf [12, 34]: 0 | Plant response rating, Velvetleaf [12, 35]: 0 | Plant response rating, Foxtail, Giant [13, 34]: 0 | Plant response rating, Foxtail, Giant [13, 35]: 0 | Plant response rating, Crabgrass [14, 34]: 0 | Plant response rating, Crabgrass [14, 35]: 0 | Plant response rating, Blackgrass [15, 34]: 0 | Plant response rating, Blackgrass [15, 35]: 0 | Plant response rating, Morningglory [16, 34]: 50 | Plant response rating, Morningglory [16, 35]: 100 | Plant response rating, Surinam grass [17, 34]: 0 | Plant response rating, Surinam grass [17, 35]: 0 | Plant response rating, Corn (corn (Zea mays) [18]; [34]): 0 | Plant response rating, Corn (corn (Zea mays) [18]; [35]): 0 | Plant response rating, Barnyardgrass [19, 34]: 0 | Plant response rating, Barnyardgrass [19, 35]: 80 | Plant response rating, Lambsquarters [20, 34]: 100 | Plant response rating, Lambsquarters [20, 35]: 100 | Plant response rating, Pigweed [21, 34]: 30 | Plant response rating, Pigweed [21, 35]: 70 | Plant response rating, Wheat [22, 34]: 0 | Plant response rating, Wheat [22, 35]: 0 | Plant response rating, Cocklebur [23, 34]: 30 | Plant response rating, Cocklebur [23, 35]: 70 | Plant response rating, Wild Oat (wild oat (Avena fatua); [34]): 0 | Plant response rating, Wild Oat (wild oat (Avena fatua); [35]): 0 | Ducksalad plant response rating ([24]; Rate 250 g/ha): 100 | Ducksalad plant response rating ([24]; Rate 500 g/ha): 100 | Plant response rating, Ducksalad ([24]; Rate 62 g/ha): 40 | Plant response rating, Ducksalad ([24]; Rate 125 g/ha): 95 | Barnyardgrass plant response rating ([25]; Rate 250 g/ha): 100 | Barnyardgrass plant response rating ([25]; Rate 500 g/ha): 100 | Plant response rating, Barnyardgrass ([25]; Rate 62 g/ha): 65 | Plant response rating, Barnyardgrass ([25]; Rate 125 g/ha): 100 | Rice plant response rating (rice (Oryza saliva) [26]; Rate 250 g/ha): 40 | Rice plant response rating (rice (Oryza saliva) [26]; Rate 500 g/ha): 60 | Plant response rating, Rice (rice (Oryza saliva) [26]; Rate 62 g/ha): 0 | Plant response rating, Rice (rice (Oryza saliva) [26]; Rate 125 g/ha): 10 | Flatsedge plant response rating ([27]; Rate 250 g/ha): 100 | Flatsedge plant response rating ([27]; Rate 500 g/ha): 100 | Plant response rating, Flatsedge ([27]; Rate 62 g/ha): 100 | Plant response rating, Flatsedge ([27]; Rate 125 g/ha): 100
